Where two headings read alike, the source gives them in different places.
Experiments:
[1] = tested on: P. falciparum gametocytes; assay: P. falciparum Gametocyte Viability ATP Assay (PfGCT); type: cell-based, Plasmodium falciparum
Text: (§1) Fig 1 The activity of TCAMS compound identified in the Pf DGFA screen. (A) 85 molecules were confirmed active in the Pf DGFA. 58 were previously identified in one or more transmission-blocking screens. […] No molecule was identified with >4.7-fold greater activity against female gametocytes. Abbreviations (IC50 = concentration giving 50% inhibition, PbODA = P. berghei Ookinete Development Assay, PfDGFA = P. falciparum Dual Gamete Formation Assay, PfFGAA = P. falciparum Female Gametocyte Activation Assay, PfGCT = P. falciparum Gametocyte Viability ATP Assay).

[2] = tested on: P. falciparum female gametocytes; assay: P. falciparum Dual Gamete Formation Assay (PfDGFA), female readout (Pfs25-positive female gametes); type: cell-based, Plasmodium falciparum NF54; conditions: for Selectivity ratio F: HepG2 Tox50 versus female IC50
How it was run: (§2)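 First, day-14 P. falciparum NF54 gametocytes receive compound for 24 h at 37°C in 1% O2/3% CO2. Next, ookinete medium with Cy3 anti-Pfs25 triggers gametogenesis at 28°C and male exflagellation is imaged. Finally, after 24 h in the dark, Cy3-labelled females are imaged.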

[3] = tested on: P. falciparum male gametocytes; assay: P. falciparum Dual Gamete Formation Assay (PfDGFA), male readout (exflagellation); type: cell-based, Plasmodium falciparum NF54; conditions: for Selectivity Ratio M: HepG2 Tox50 versus male IC50
How it was run: as §2

[4] = tested on: P. falciparum female gametocytes; assay: P. falciparum Female Gametocyte Activation Assay (PfFGAA); type: cell-based, Plasmodium falciparum
HepG2 cells [5] = conditions: cited from earlier work
[6] = tested on: P. falciparum gametocytes; set-up: method as in Almela et al 2015; conditions: ref Almela et al 2015; read-out: Pf Gametocyte viability (ATP) GC-ATP IC50; cited from earlier work
HepG2 cells [7] = assay: HepG2 cytotoxicity counter-screen; conditions: for Mean TOX: mean of the HepG2 TOX50 values; for Tox50: cytotoxic activity against HepG2 cells
[8] = tested on: P. falciparum female gametocytes; set-up: method as in Miguel-Blanco et al 2017; conditions: ref Miguel-Blanco et al 2017; read-out: Pf female gametogenesis FGAA IC50; cited from earlier work
[9] = tested on: P. berghei ookinete development; assay: P. berghei Ookinete Development Assay (PbODA); type: cell-based, Plasmodium berghei; conditions: Mean TOX HepG2 over Pb ODA value; GREEN = >10-fold; RED = <10-fold
Text: as §1

[10] = Mean TOX HepG2 over GC-ATP IC50, GREEN = >10-fold, RED = <10-fold
[11] = this study, read-out: Pf DGFA IC50 FEM
[12] = this study, read-out: Pf DGFA IC50 MALE
[13] = Mean TOX HepG2 over FGAA IC50, GREEN = >10-fold, RED = <10-fold
[14] = Mean TOX HepG2 over DGFA IC50 FEM, GREEN = >10-fold, RED = <10-fold
[15] = Plasmodium falciparum, PfDGFA, 24 h incubation with gametocytes before induction, female gamete readout, read-out: Female IC50
[16] = Mean TOX HepG2 over DGFA IC50 MALE, GREEN = >10-fold, RED = <10-fold
[17] = Plasmodium falciparum, PfDGFA, 24 h incubation with gametocytes before induction, exflagellation readout, read-out: Male IC50
[18] = HepG2 value reported with the FGAA screen, ref Miguel-Blanco et al 2017
[19] = HepG2 value reported with the GC-ATP screen, ref Almela et al 2015
[20] = Plasmodium falciparum, 2µM, 24h preincubation with gametocytes, average of replicates, read-out: Average inhibition female (%)
[21] = Plasmodium falciparum, 2µM, 24h preincubation with gametocytes, replicate R1, read-out: % inhibition female (individual replicates) R1
[22] = Plasmodium falciparum, 2µM, 24h preincubation with gametocytes, replicate R2, read-out: % inhibition female (individual replicates) R2
[23] = Plasmodium falciparum, 2µM, 24h preincubation with gametocytes, replicate R3, read-out: % inhibition female (individual replicates) R3
[24] = Plasmodium falciparum, 2µM, 24h preincubation with gametocytes, replicate R4, read-out: % inhibition female (individual replicates) R4
[25] = Plasmodium falciparum, 2µM, 24h preincubation with gametocytes, average of replicates, read-out: Average inhibition male (%)
[26] = Plasmodium falciparum, 2µM, 24h preincubation with gametocytes, replicate R1, read-out: % inhibition male (individual replicates) R1
[27] = Plasmodium falciparum, 2µM, 24h preincubation with gametocytes, replicate R2, read-out: % inhibition male (individual replicates) R2
[28] = Plasmodium falciparum, 2µM, 24h preincubation with gametocytes, replicate R3, read-out: % inhibition male (individual replicates) R3
[29] = Plasmodium falciparum, 2µM, 24h preincubation with gametocytes, replicate R4, read-out: % inhibition male (individual replicates) R4

| IC50 [2, 11] | IC50 [3, 12] | SMILES | Cytotox ratio Pf GC-ATP [1, 10] | Cytotox ratio Pf Female [2] | Cytotox ratio Pf Male [3] | GC-ATP TOX50 HepG2 (HepG2 cells [5]) | IC50 [6] | Mean TOX (HepG2 cells [7]) | IC50 [8] | Cytotox ratio Pf GC-ATP ([1]; human) | Selectivity ratio F [2] | Cytotox ratio Pf Female [2, 14] | IC50 [2, 15] | Selectivity Ratio M [3] | Cytotox ratio Pf Male [3, 16] | IC50 [3, 17] | Cytotox ratio Pf FGAA ([4]; human) | FGAA TOX50 HepG2 (HepG2 cells [5]; [18]) | GC-ATP TOX50 HepG2 (HepG2 cells [5]; [19]) | Tox50 (HepG2 cells [7]) | also measured |
| --- | --- | --- | --- | --- | --- | --- | --- | --- | --- | --- | --- | --- | --- | --- | --- | --- | --- | --- | --- | --- | --- |
| 0.14 µM | 0.14 µM | [O-][s+]1c(Cl)c(-c2ccc(Cl)cc2)c2ccc(Cl)cc21 (stereo not shown) [TC66] | 695.8 | 99.4 | 99.4 | 12.8 µM | 0.02 µM | 13.92 µM | 0.04 µM |  |  |  |  |  |  |  |  |  |  |  | Cytotox ratio Pf FGAA [4, 13]: 347.9; FGAA TOX50 HepG2 (HepG2 cells [5]): 11.35 µM |
| 0.26 µM | 0.24 µM | O=C(O)CCSSc1cccc[n+]1[O-] [TC78] | 82.1 | 85.2 | 92.3 | 7.8 µM | 0.27 µM | 22.16 µM | 0.04 µM |  |  |  |  |  |  |  |  |  |  |  | Cytotox ratio Pf FGAA [4, 13]: 554.1; FGAA TOX50 HepG2 (HepG2 cells [5]): 19.05 µM; ODA TOX50 HepG2 (HepG2 cells [5]): 30.903 µM; Cytotox ratio Pb Ookinete [9]: 13258.7 |
|  |  | COc1cc2nc(N3CCN(c4nc(N)c5cc(OC)c(OC)cc5n4)CC3)nc(N)c2cc1OC [TCMDC-123865] |  |  |  |  | 0.26 µM | 39.61 µM | 0.58 µM | 152.3 | 20.76 | 19.9 | 1.99 µM | 28.11 | 26.9 | 1.47 µM | 68.3 | 52.49 µM | 25 µM | 41.34 µM | HitlevelF ([2]; 2µM, 24h preincubation, number of replicates with >50% inhibition in the female readout): 0; inhibition at 2 µM ([2]; Plasmodium falciparum, 2µM, 24h preincubation with gametocytes prior to induction of gametogenesis, average of replicates, read-out: Average inhibition female (%)): 2.6%; inhibition at 2 µM ([2]; Plasmodium falciparum, 2µM, 24h preincubation with gametocytes prior to induction of gametogenesis, replicate R1, read-out: % inhibition female (individual replicates) R1): 18.2%; inhibition at 2 µM ([2]; Plasmodium falciparum, 2µM, 24h preincubation with gametocytes prior to induction of gametogenesis, replicate R2, read-out: % inhibition female (individual replicates) R2): 4%; inhibition at 2 µM ([2]; Plasmodium falciparum, 2µM, 24h preincubation with gametocytes prior to induction of gametogenesis, replicate R3, read-out: % inhibition female (individual replicates) R3): -8.7%; inhibition at 2 µM ([2]; Plasmodium falciparum, 2µM, 24h preincubation with gametocytes prior to induction of gametogenesis, replicate R4, read-out: % inhibition female (individual replicates) R4): -3.2%; HitlevelM ([3]; 2µM, 24h preincubation, number of replicates with >50% inhibition in the male readout): 3; inhibition at 2 µM ([3]; Plasmodium falciparum, 2µM, 24h preincubation with gametocytes prior to induction of gametogenesis, average of replicates, read-out: Average inhibition male (%)): 50.1%; inhibition at 2 µM ([3]; Plasmodium falciparum, 2µM, 24h preincubation with gametocytes prior to induction of gametogenesis, replicate R1, read-out: % inhibition male (individual replicates) R1): 50.8%; inhibition at 2 µM ([3]; Plasmodium falciparum, 2µM, 24h preincubation with gametocytes prior to induction of gametogenesis, replicate R2, read-out: % inhibition male (individual replicates) R2): 50.6%; inhibition at 2 µM ([3]; Plasmodium falciparum, 2µM, 24h preincubation with gametocytes prior to induction of gametogenesis, replicate R3, read-out: % inhibition male (individual replicates) R3): 23.6%; inhibition at 2 µM ([3]; Plasmodium falciparum, 2µM, 24h preincubation with gametocytes prior to induction of gametogenesis, replicate R4, read-out: % inhibition male (individual replicates) R4): 75.6% |
|  |  | CN(C)CCNCc1cccc(-c2ccc3c(Nc4ccc(Oc5ccccn5)cc4)ccnc3c2)c1 [TCMDC-138493] |  |  |  |  | 0.22 µM | 6.62 µM | 0.82 µM | 20.4 | 2.14 | 1.2 | 5.32 µM | 14.59 | 8.5 | 0.78 µM | 4.9 | 3.98 µM | 4.49 µM | 11.38 µM | inhibition at 2 µM [2, 20]: 65.4%; inhibition at 2 µM [2, 21]: 58.7%; inhibition at 2 µM [2, 22]: 66.3%; inhibition at 2 µM [2, 23]: 72.6%; inhibition at 2 µM [2, 24]: 64.1%; inhibition at 2 µM [3, 25]: 96.2%; inhibition at 2 µM [3, 26]: 93.5%; inhibition at 2 µM [3, 27]: 99.2%; inhibition at 2 µM [3, 28]: 91.9%; inhibition at 2 µM [3, 29]: 100% |
|  |  | CN1CCN(CCCNCc2cccc(-c3ccc(CNCCc4ccccc4)cc3)c2)CC1.O=C(O)C(F)(F)F [TCMDC-140643] |  |  |  |  | 0.41 µM | 13.07 µM | 1.91 µM | 31.9 | 1.63 | 1.6 | 7.98 µM | 18.8 | 18.9 | 0.69 µM | 6.8 | 7.92 µM | 18.24 µM | 13.04 µM | inhibition at 2 µM [2, 20]: 34.1%; inhibition at 2 µM [2, 21]: 40.2%; inhibition at 2 µM [2, 22]: 30.4%; inhibition at 2 µM [2, 23]: 25.8%; inhibition at 2 µM [2, 24]: 40%; inhibition at 2 µM [3, 25]: 91.2%; inhibition at 2 µM [3, 26]: 95%; inhibition at 2 µM [3, 27]: 75.6%; inhibition at 2 µM [3, 28]: 95.7%; inhibition at 2 µM [3, 29]: 98.5% |

| SMILES | IC50 [2, 11] | IC50 [3, 12] | Cytotox ratio Pf GC-ATP [1, 10] | Cytotox ratio Pf Female [2] | Cytotox ratio Pf Male [3] | GC-ATP TOX50 HepG2 (HepG2 cells [5]) | IC50 [6] | Mean TOX (HepG2 cells [7]) | IC50 [8] | Cytotox ratio Pf GC-ATP ([1]; human) | Selectivity ratio F [2] | Cytotox ratio Pf Female [2, 14] | IC50 [2, 15] | Selectivity Ratio M [3] | Cytotox ratio Pf Male [3, 16] | IC50 [3, 17] | Cytotox ratio Pf FGAA ([4]; human) | FGAA TOX50 HepG2 (HepG2 cells [5]; [18]) | GC-ATP TOX50 HepG2 (HepG2 cells [5]; [19]) | Tox50 (HepG2 cells [7]) | also measured |
| --- | --- | --- | --- | --- | --- | --- | --- | --- | --- | --- | --- | --- | --- | --- | --- | --- | --- | --- | --- | --- | --- |
| Nc1cc(C=Cc2ccc([N+](=O)[O-])s2)nc2ccccc12 [TC80] | 1.03 µM | 0.33 µM | 7.8 | 4.5 | 14.2 | 7.6 µM | 0.6 µM | 4.68 µM |  |  |  |  |  |  |  |  |  |  |  |  |  |

From publication PMC10584170, “Machine learning-based phenotypic imaging to characterise the targetable biology of Plasmodium falciparum male gametocytes for the development of transmission-blocking antimalarials” (PLOS Pathogens, 2023)
